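Growth conditions: 96-well plates. Treatment: test compound, 48 hours, 5 concentrations. Analysis: linear interpolation between bracketing concentrations; unreached endpoints set to highest concentration. GI50 is the concentration that inhibits growth by half.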 Calls of active or inactive are those of the source. No stated cut-off is given here; in the data, active = GI50 up to about 1.1 µM and inactive = higher. Non-standard residues stand in square brackets, D forms with d. Residues, ends and D or L forms follow the SMILES beside them. *: point of attachment. Ac5c = NC1(C(=O)O)CCCC1; Boc = CC(C)(C)OC(=O)*; tBu = CC(C)(C)*
Columns and labels:
Assay in all cases: DTP human tumour cell line panel, 48 h
SN12C = test system: SN12C
NCI-H460 = test system: NCI-H460
CAKI-1 = test system: CAKI-1
SF-268 = test system: SF-268
EKVX = test system: EKVX
HCT-116 = test system: HCT-116
HOP-92 = test system: HOP-92
SK-OV-3 = test system: SK-OV-3
OVCAR-5 = test system: OVCAR-5
K562 = test system: K562
Hs-578T = test system: Hs-578T
BT-549 = test system: BT-549
ACHN = test system: ACHN
OVCAR-8 = test system: OVCAR-8
TK-10 = test system: TK-10
HCC 2998 = test system: HCC 2998
HL-60 = test system: HL-60
LOX IMVI = test system: LOX IMVI
NCI-H226 = test system: NCI-H226
SR = test system: SR

Row | SMILES | GI50 (SN12C) | GI50 (NCI-H460) | GI50 (CAKI-1) | GI50 (SF-268) | GI50 (EKVX) | GI50 (HCT-116) | GI50 (HOP-92) | GI50 (SK-OV-3) | GI50 (OVCAR-5) | GI50 (K562) | GI50 (Hs-578T) | GI50 (BT-549) | GI50 (ACHN) | GI50 (OVCAR-8) | GI50 (TK-10) | GI50 (HCC 2998) | GI50 (HL-60) | GI50 (LOX IMVI) | GI50 (NCI-H226) | GI50 (SR)
1 | CC(=O)O[C@H](C[C@@H](C)[C@H]1C(=O)[C@H](O)[C@@]2(C)C3CC[C@H]4C(C)(C)[C@@H](OC5OCC(O)C(O)C5O)CC[C@@]45C[C@@]35CC[C@]12C)[C@@H]1OC1(C)C (some centres not stated) | 18.9 µM (inactive) | 16.9 µM (inactive) | 16.8 µM (inactive) | 20.7 µM (inactive) | 18 µM (inactive) | 18.1 µM (inactive) | 16.9 µM (inactive) | 12.7 µM (inactive) | 16.9 µM (inactive) | 0.14 µM (active) | 38 µM (inactive) | 21.9 µM (inactive) | 14 µM (inactive) | 20.2 µM (inactive) | 16.3 µM (inactive) | 16.3 µM (inactive) | 2.21 µM (inactive) | 30.3 µM (inactive) | 17.5 µM (inactive) | 
2 | CC1(C)OC(=O)C2(O1)C(=O)C1CCCCC12 (configuration not stated) | 3.63 µM (inactive) |  | 10.2 µM (inactive) | > 100 µM (inactive) | 21 µM (inactive) | > 100 µM (inactive) |  | 8.51 µM (inactive) | 44.6 µM (inactive) | > 100 µM (inactive) | 32.4 µM (inactive) | 23.9 µM (inactive) | > 100 µM (inactive) | > 100 µM (inactive) | 70.5 µM (inactive) | > 100 µM (inactive) |  |  | 45.4 µM (inactive) | 
3 | CC(OC(C)(C)C)C1NC(=O)C(CCCCNC(=O)OC(C)(C)C)NC(=O)C(Cc2c[nH]c3ccccc23)NC(=O)C(Cc2ccccc2)NC(=O)C2(CCCC2)NC(=O)C(Cc2ccccc2)NC1=O (configuration not stated) (cyclo([Ac5c]FWK(Boc)T(tBu)F); configuration not given here) | 29.9 µM (inactive) | 36.7 µM (inactive) | 42.9 µM (inactive) | 16.6 µM (inactive) | 41.5 µM (inactive) | 33.3 µM (inactive) | 23.5 µM (inactive) | 68.4 µM (inactive) | 72.6 µM (inactive) | 27.8 µM (inactive) | 33.3 µM (inactive) |  | 32.4 µM (inactive) | 50.2 µM (inactive) | 24.8 µM (inactive) | 19 µM (inactive) | 17.5 µM (inactive) | 19.2 µM (inactive) | 21.5 µM (inactive) | 32.2 µM (inactive)
4 | COC(=O)C1(C(=O)OC)N=C(C)OC1c1ccccn1 (configuration not stated) | > 100 µM (inactive) | > 100 µM (inactive) | > 100 µM (inactive) |  | > 100 µM (inactive) | > 100 µM (inactive) | > 100 µM (inactive) | > 100 µM (inactive) | > 100 µM (inactive) | > 100 µM (inactive) |  | > 100 µM (inactive) | > 100 µM (inactive) | > 100 µM (inactive) | > 100 µM (inactive) | > 100 µM (inactive) | > 100 µM (inactive) | > 100 µM (inactive) | > 100 µM (inactive) | > 100 µM (inactive)
5 | CCOc1cc(/C=C2/C(C)=NN(c3cccc(Cl)c3)/C2=N/c2nc3ccccc3s2)ccc1O |  | 25.5 µM (inactive) |  | 28.2 µM (inactive) | 38.4 µM (inactive) | 24.2 µM (inactive) | 23.2 µM (inactive) | 23 µM (inactive) | 98.9 µM (inactive) | 40.4 µM (inactive) | 29.7 µM (inactive) |  | 24.3 µM (inactive) | 30.4 µM (inactive) | 36.9 µM (inactive) | 14.3 µM (inactive) | 3.3 µM (inactive) | 35.9 µM (inactive) | 23.7 µM (inactive) | 27.9 µM (inactive)
6 | C[C@@H]1OC2(O)[C@@H]3CCCN3C(=O)N(Cc3ccccc3)N2C1=O (some centres not stated) | > 100 µM (inactive) | > 100 µM (inactive) | > 100 µM (inactive) | > 100 µM (inactive) | > 100 µM (inactive) | > 100 µM (inactive) | > 100 µM (inactive) | > 100 µM (inactive) | > 100 µM (inactive) |  | > 100 µM (inactive) |  | > 100 µM (inactive) | > 100 µM (inactive) | > 100 µM (inactive) | > 100 µM (inactive) | > 100 µM (inactive) | > 100 µM (inactive) | > 100 µM (inactive) | > 100 µM (inactive)
7 | CCOc1ccc2c(c1)/C(=C(\C(Cl)=C(Cl)Cl)[N+](=O)[O-])N2 | > 100 µM (inactive) | > 100 µM (inactive) | > 100 µM (inactive) | 66.2 µM (inactive) | 37.6 µM (inactive) | > 100 µM (inactive) |  | > 100 µM (inactive) | > 100 µM (inactive) | 51.6 µM (inactive) | > 100 µM (inactive) | 28.2 µM (inactive) | > 100 µM (inactive) | > 100 µM (inactive) |  | > 100 µM (inactive) |  |  | > 100 µM (inactive) | 
8 | Cc1cc(-c2no[n+]([O-])c2-c2cc(C)sc2S(C)(=O)=O)c(S(C)(=O)=O)s1 | > 100 µM (inactive) | > 100 µM (inactive) | > 100 µM (inactive) | > 100 µM (inactive) | > 100 µM (inactive) | > 100 µM (inactive) | > 100 µM (inactive) | > 100 µM (inactive) | > 100 µM (inactive) | 83.4 µM (inactive) | > 100 µM (inactive) |  | > 100 µM (inactive) | > 100 µM (inactive) | > 100 µM (inactive) | > 100 µM (inactive) |  | > 100 µM (inactive) | > 100 µM (inactive) | > 100 µM (inactive)
9 | Cc1ccc(S(=O)(=O)NC(=O)N[C@@H](Cc2c[nH]cn2)C(=O)O)cc1 | > 100 µM (inactive) | > 100 µM (inactive) |  | > 100 µM (inactive) |  | > 100 µM (inactive) | > 100 µM (inactive) | > 100 µM (inactive) | > 100 µM (inactive) | > 100 µM (inactive) | > 100 µM (inactive) | > 100 µM (inactive) | > 100 µM (inactive) | > 100 µM (inactive) | > 100 µM (inactive) |  | > 100 µM (inactive) | > 100 µM (inactive) |  | 
10 | CCC1=CCC23C(=O)C=CC(=O)C2(C1)C(=O)c1cccc(OC)c1C3=O (configuration not stated) | 18.3 µM (inactive) | 28.2 µM (inactive) | 13.1 µM (inactive) | 17.6 µM (inactive) | 13.2 µM (inactive) | 14.6 µM (inactive) | 15.1 µM (inactive) |  | 16.2 µM (inactive) | 12.9 µM (inactive) | 20.2 µM (inactive) |  | 14.3 µM (inactive) | 15.2 µM (inactive) | 19.1 µM (inactive) |  | 2.73 µM (inactive) | 15.1 µM (inactive) | 22.1 µM (inactive) | 9.82 µM (inactive)
11 | CC(C)[Si](OC1=C(C(=O)N(C)c2ccccc2Cl)CCCC1)(C(C)C)C(C)C |  | 12.9 µM (inactive) | 14.3 µM (inactive) | 13.9 µM (inactive) | 13.6 µM (inactive) |  | 13.3 µM (inactive) | 14.7 µM (inactive) | 12.8 µM (inactive) | 6.15 µM (inactive) | 13.3 µM (inactive) |  | 15.5 µM (inactive) | 16.2 µM (inactive) | 15.1 µM (inactive) | 13.6 µM (inactive) |  | 15.7 µM (inactive) | 16 µM (inactive) | 5.43 µM (inactive)
12 | Nc1n[n+](CC(=O)c2ccccc2)c2sc(-c3ccccc3)nn12 | > 100 µM (inactive) | > 100 µM (inactive) | > 100 µM (inactive) | 18.8 µM (inactive) | > 100 µM (inactive) | 44.2 µM (inactive) |  | > 100 µM (inactive) | > 100 µM (inactive) | 82.4 µM (inactive) | > 100 µM (inactive) | > 100 µM (inactive) | > 100 µM (inactive) | 78.2 µM (inactive) | > 100 µM (inactive) |  |  | 54 µM (inactive) | > 100 µM (inactive) | 
13 | CC1C[C@]2(C)C(=S)Nc3ccccc3[C@@H]2Nc2ccccc21 (some centres not stated) | 17.9 µM (inactive) | 13.2 µM (inactive) | 25.4 µM (inactive) | 1.11 µM (active) | 22.3 µM (inactive) | 12.6 µM (inactive) | 12.2 µM (inactive) |  | 20.8 µM (inactive) | 26.6 µM (inactive) | 35.2 µM (inactive) |  | 19.3 µM (inactive) | 15.9 µM (inactive) | 19 µM (inactive) | 22.2 µM (inactive) | 33.5 µM (inactive) | 13.4 µM (inactive) | 17.3 µM (inactive) | > 100 µM (inactive)
14 | Cc1ccc(S(=O)(=O)Nn2c(-c3ccccc3)c(C#N)c(-c3ccc([N+](=O)[O-])cc3)c(C#N)c2=O)cc1 | > 100 µM (inactive) | > 100 µM (inactive) | > 100 µM (inactive) | > 100 µM (inactive) | > 100 µM (inactive) | > 100 µM (inactive) | 30.1 µM (inactive) | > 100 µM (inactive) | > 100 µM (inactive) |  | 88.7 µM (inactive) | > 100 µM (inactive) | > 100 µM (inactive) | > 100 µM (inactive) | > 100 µM (inactive) | > 100 µM (inactive) | 39.4 µM (inactive) | > 100 µM (inactive) | > 100 µM (inactive) | 
15 | CCOC(=O)/C(=C\c1cccs1)P(=O)(OCC)OCC | 19.7 µM (inactive) | 20.1 µM (inactive) | 18.2 µM (inactive) | 24.1 µM (inactive) | 23.8 µM (inactive) | 19.2 µM (inactive) | 27.6 µM (inactive) | 38.9 µM (inactive) | 21.9 µM (inactive) | 29.9 µM (inactive) |  |  | 17.6 µM (inactive) | 25.4 µM (inactive) | 36.6 µM (inactive) | 18.4 µM (inactive) | 13.9 µM (inactive) | 15.7 µM (inactive) | 18.7 µM (inactive) | 19.1 µM (inactive)
